Experimental findings from ChEMBL document CHEMBL4765372, “Design, synthesis and anti-inflammatory activity of 3-amino acid derivatives of ocotillol-type sapogenins” (Eur J Med Chem, 2020) are described below.

The subject of data set [1] is RAW264.7. In words: Cytotoxicity against mouse RAW264.7 assessed as reduction in cell viability at 20 uM measured after 24 hrs by MTT assay relative to control. It counts as cell-based. The conditions noted are these: raw264.7, 24 h. In general terms: Tetrazolium assays rely on reduction of a dye to a coloured formazan, in cell work by metabolically active cells.
Data set [2] has as its system RAW264.7. In words: Antiinflammatory activity in mouse RAW264.7 cells assessed as inhibition of LPS-induced NO production at 20 uM after 24 hrs by Griess method. It counts as functional, cell-based. For orientation: Griess reagent forms a coloured azo dye with nitrite.
Data set [3] concerns RAW264.7. The data set is described as follows: Inhibition of LPS-induced JNK phosphorylation in mouse RAW264.7 cell upto 30 uM measured after 2 hr by Western blot analysis. The following applies: dose microM <=30, time 2.0 hrs. A general note: In western blotting, separated proteins are transferred to a membrane and probed.
Data set [4] deals with Mitogen-activated protein kinase 1 and 3 (ERK2 and ERK1) (Mus musculus) (UniProt P63085+Q63844). In words: Inhibition of LPS-induced ERK1/2 phosphorylation in mouse RAW264.7 cell upto 30 uM measured after 2 hr by Western blot analysis. The conditions noted are these: dose microM <=30, time 2.0 hrs.
Sequence of Mitogen-activated protein kinase 1 and 3 (ERK2 and ERK1) (Mus musculus) (P63085 whole entry, looked up): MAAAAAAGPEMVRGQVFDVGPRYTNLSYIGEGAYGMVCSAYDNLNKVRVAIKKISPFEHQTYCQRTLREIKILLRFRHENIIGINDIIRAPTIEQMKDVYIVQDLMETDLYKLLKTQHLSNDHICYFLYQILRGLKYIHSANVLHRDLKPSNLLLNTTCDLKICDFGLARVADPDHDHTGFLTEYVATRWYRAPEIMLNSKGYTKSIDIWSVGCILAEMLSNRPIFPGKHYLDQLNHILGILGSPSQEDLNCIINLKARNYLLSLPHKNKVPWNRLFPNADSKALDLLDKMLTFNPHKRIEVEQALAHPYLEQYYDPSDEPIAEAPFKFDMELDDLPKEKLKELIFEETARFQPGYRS
Sequence of Mitogen-activated protein kinase 1 and 3 (ERK2 and ERK1) (Mus musculus) (Q63844 whole entry, looked up): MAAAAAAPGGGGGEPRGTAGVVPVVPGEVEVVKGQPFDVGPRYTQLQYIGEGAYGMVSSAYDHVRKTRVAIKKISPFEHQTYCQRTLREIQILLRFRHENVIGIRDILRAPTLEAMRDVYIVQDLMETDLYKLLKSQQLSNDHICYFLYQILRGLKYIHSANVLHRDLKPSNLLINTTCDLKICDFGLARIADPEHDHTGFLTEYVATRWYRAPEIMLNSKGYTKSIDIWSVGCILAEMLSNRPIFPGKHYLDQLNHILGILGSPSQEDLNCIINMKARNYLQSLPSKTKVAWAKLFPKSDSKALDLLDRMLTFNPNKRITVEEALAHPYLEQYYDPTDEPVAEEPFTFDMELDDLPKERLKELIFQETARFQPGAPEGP
In data set [5] the test system is RAW264.7. In words: Inhibition of LPS-induced p38 phosphorylation in mouse RAW264.7 cell upto 30 uM measured after 2 hr by Western blot analysis. The following applies: dose microM <=30, time 2.0 hrs.
Data set [6] relates to RAW264.7. In words: Inhibition of LPS-induced TNFalpha protein expression in mouse RAW264.7 cells upto 30 uM measured after 6 hrs by ELISA. It is filed as functional, cell-based. The following applies: dose microM <=30, time 6.0 hrs.
Data set [7] relates to RAW264.7. In words: Inhibition of LPS-induced NO production in mouse RAW264.7 cells assessed as reduction in COX-2 protein expression measured after 24 hrs by Western blot analysis. It is filed as functional, cell-based. The following applies: dose microM <=30, time 24.0 hrs.
Data set [8] has as its system RAW264.7. In words: Inhibition of LPS-induced IL-6 protein expression in mouse RAW264.7 cells upto 30 uM measured after 6 hrs by ELISA. The following applies: dose microM <=30, time 6.0 hrs. It counts as functional, cell-based.
Data set [9] deals with Transcription factor p65 (Mus musculus) (UniProt Q04207). The data set is described as follows: Inhibition of LPS-induced NFkappaB p65 nucleus translocation in mouse RAW264.7 cells at 30 uM measured after 2 hr by immunofluorescence microscopic analysis. It is filed as cell-based.
Sequence of Transcription factor p65 (Mus musculus) (Q04207 whole entry): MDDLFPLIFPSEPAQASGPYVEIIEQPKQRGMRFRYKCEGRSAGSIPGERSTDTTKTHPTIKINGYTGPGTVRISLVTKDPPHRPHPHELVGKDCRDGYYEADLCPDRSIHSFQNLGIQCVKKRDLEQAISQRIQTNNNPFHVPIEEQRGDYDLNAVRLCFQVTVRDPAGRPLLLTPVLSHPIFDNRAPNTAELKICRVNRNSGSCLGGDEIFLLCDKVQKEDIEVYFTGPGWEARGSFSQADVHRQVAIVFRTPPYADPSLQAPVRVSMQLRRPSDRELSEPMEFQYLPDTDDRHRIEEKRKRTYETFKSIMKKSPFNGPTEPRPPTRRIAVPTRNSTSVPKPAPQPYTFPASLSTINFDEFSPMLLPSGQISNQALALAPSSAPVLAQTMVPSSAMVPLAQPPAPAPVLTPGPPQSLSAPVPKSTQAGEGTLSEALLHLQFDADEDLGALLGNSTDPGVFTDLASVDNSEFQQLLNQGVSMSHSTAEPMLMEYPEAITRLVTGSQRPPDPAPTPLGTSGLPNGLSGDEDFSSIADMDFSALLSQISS
Data set [10] has as its system RAW264.7. The data set is described as follows: Inhibition of LPS-stimulated NFkappaB activation in mouse RAW264.7 cells assessed as reduction in LPS-induced IkappaB phosphorylation at 7.5 to 30 uM after 2 hrs by Western blot analysis. It is filed as cell-based. The conditions noted are these: dose 7.5-30 µM.
Data set [11] deals with RAW264.7. The data set is described as follows: Inhibition of LPS-induced NO production in mouse RAW264.7 cells assessed as reduction in iNOS protein expression measured after 24 hrs by Western blot analysis. It counts as functional, cell-based. The following applies: dose microM <=30, time 24.0 hrs.

Calls of active or inactive are those of the source. The rule behind the calls is not given here.

Take `CC(C)(O)[C@H]1CC[C@@](C)([C@H]2CC[C@]3(C)[C@@H]2[C@H](O)C[C@@H]2[C@@]4(C)CC[C@H](OC(=O)[C@@H](N)Cc5ccccc5)C(C)(C)[C@@H]4CC[C@]23C)O1`: the Activity entry with RAW264.7 [1] is given as “Non-Toxic”. For `C[C@]12CCC(=O)C=C1CC[C@@H]1[C@@H]2[C@@H](O)C[C@@]2(C)[C@H]1CC[C@]2(O)C(=O)COC(=O)CCC(=O)[O-].[Na+]` [HYDROCORTISONE SODIUM SUCCINATE], the Activity result in the data set on RAW264.7 [1] was “Non-Toxic”. As for `CC(C)(O)[C@@H]1CC[C@@](C)([C@H]2CC[C@]3(C)[C@@H]2[C@H](O)C[C@@H]2[C@@]4(C)CC[C@H](OC(=O)CNC(=O)CNC(=O)CN)C(C)(C)[C@@H]4CC[C@]23C)O1`, in the data set with RAW264.7 [1], the Activity entry was “Non-Toxic”. Further, the outcome with RAW264.7 [2] was Active. On the same counts, the results for `CC(C)(C)OC(=O)NCC(=O)NCC(=O)O[C@H]1CC[C@]2(C)[C@H]3C[C@@H](O)[C@@H]4[C@@H]([C@]5(C)CC[C@@H](C(C)(C)O)O5)CC[C@@]4(C)[C@]3(C)CC[C@H]2C1(C)C` are “Non-Toxic” and “Active”.

As to `CC(C)(O)[C@H]1CC[C@@](C)([C@H]2CC[C@]3(C)[C@@H]2[C@H](O)C[C@@H]2[C@@]4(C)CC[C@H](OC(=O)CNC(=O)CNC(=O)CN)C(C)(C)[C@@H]4CC[C@]23C)O1`, in the data set on RAW264.7 [1], the Activity result was “Non-Toxic”. For the same molecule, the result in the data set on RAW264.7 [2] was Active. Take `CC(C)(O)[C@H]1CC[C@@](C)([C@H]2CC[C@]3(C)[C@@H]2[C@H](O)C[C@@H]2[C@@]4(C)CC[C@H](O)C(C)(C)[C@@H]4CC[C@]23C)O1`: the Activity entry in the data set on RAW264.7 [1] is recorded as “Non-Toxic”. For the same molecule, the result in the data set on RAW264.7 [2] was Active.

Turning to `CC(C)(O)[C@@H]1CC[C@@](C)([C@H]2CC[C@]3(C)[C@@H]2[C@H](O)C[C@@H]2[C@@]4(C)CC[C@H](O)C(C)(C)[C@@H]4CC[C@]23C)O1`, in the data set with RAW264.7 [1], the Activity result is recorded as “Non-Toxic”. For the same molecule, the outcome in the data set on RAW264.7 [2] was Active. On the same counts, the results for `CC(C)(C)OC(=O)NCCCC[C@H](NC(=O)OC(C)(C)C)C(=O)O[C@H]1CC[C@]2(C)[C@H]3C[C@@H](O)[C@@H]4[C@@H]([C@]5(C)CC[C@H](C(C)(C)O)O5)CC[C@@]4(C)[C@]3(C)CC[C@H]2C1(C)C` are “Non-Toxic” and “Active”. On the same counts, the results for `CC(C)(C)OC(=O)NCC(=O)O[C@H]1CC[C@]2(C)[C@H]3C[C@@H](O)[C@@H]4[C@@H]([C@]5(C)CC[C@H](C(C)(C)O)O5)CC[C@@]4(C)[C@]3(C)CC[C@H]2C1(C)C` are “Non-Toxic” and “Active”. As to `CC(C)(C)OC(=O)CC[C@H](NC(=O)OC(C)(C)C)C(=O)O[C@H]1CC[C@]2(C)[C@H]3C[C@@H](O)[C@@H]4[C@@H]([C@]5(C)CC[C@H](C(C)(C)O)O5)CC[C@@]4(C)[C@]3(C)CC[C@H]2C1(C)C`, the Activity result in the data set on RAW264.7 [1] is “Non-Toxic”. Turning to `CC(C)(O)[C@@H]1CC[C@@](C)([C@H]2CC[C@]3(C)[C@@H]2[C@H](O)C[C@@H]2[C@@]4(C)CC[C@H](OC(=O)CNC(=O)CN)C(C)(C)[C@@H]4CC[C@]23C)O1`, the Activity entry with RAW264.7 [1] is reported as “Non-Toxic”. For the same molecule, the result in the data set with RAW264.7 [2] was Active. Turning to `CC(C)(O)[C@@H]1CC[C@@](C)([C@H]2CC[C@]3(C)[C@@H]2[C@H](O)C[C@@H]2[C@@]4(C)CC[C@H](OC(=O)[C@@H](N)Cc5ccccc5)C(C)(C)[C@@H]4CC[C@]23C)O1`, the Activity result with RAW264.7 [1] is “Non-Toxic”.

Consider `CC(C)(O)[C@H]1CC[C@@](C)([C@H]2CC[C@]3(C)[C@@H]2[C@H](O)C[C@@H]2[C@@]4(C)CC[C@H](OC(=O)[C@@H](N)CCC(=O)O)C(C)(C)[C@@H]4CC[C@]23C)O1`, for which the Activity result with RAW264.7 [1] is reported as “Non-Toxic”. For the same molecule, the outcome in the data set with RAW264.7 [2] was Active. `CC(C)(C)OC(=O)NCC(=O)NCC(=O)NCC(=O)O[C@H]1CC[C@]2(C)[C@H]3C[C@@H](O)[C@@H]4[C@@H]([C@]5(C)CC[C@H](C(C)(C)O)O5)CC[C@@]4(C)[C@]3(C)CC[C@H]2C1(C)C`: the Activity entry in the data set with RAW264.7 [1] is “Non-Toxic”. Moreover, the outcome in the data set with RAW264.7 [2] was inactive. For `CC(C)(C)OC(=O)CC[C@H](NC(=O)OC(C)(C)C)C(=O)O[C@H]1CC[C@]2(C)[C@H]3C[C@@H](O)[C@@H]4[C@@H]([C@]5(C)CC[C@@H](C(C)(C)O)O5)CC[C@@]4(C)[C@]3(C)CC[C@H]2C1(C)C`, the Activity entry with RAW264.7 [1] is reported as “Non-Toxic”. As to `CC(C)(O)[C@@H]1CC[C@@](C)([C@H]2CC[C@]3(C)[C@@H]2[C@H](O)C[C@@H]2[C@@]4(C)CC[C@H](OC(=O)[C@@H](N)CCC(=O)O)C(C)(C)[C@@H]4CC[C@]23C)O1`, the Activity entry in the data set with RAW264.7 [1] was “Non-Toxic”. For the same molecule, in the data set on RAW264.7 [2], the result was Active. As for `CC(C)(O)[C@H]1CC[C@@](C)([C@H]2CC[C@]3(C)[C@@H]2[C@H](O)C[C@@H]2[C@@]4(C)CC[C@H](OC(=O)[C@@H](N)CCCCN)C(C)(C)[C@@H]4CC[C@]23C)O1`, the Activity result in the data set on RAW264.7 [1] is “Non-Toxic”. The same measure, in the same setting: for `CC(C)(C)OC(=O)N[C@@H](Cc1ccccc1)C(=O)O[C@H]1CC[C@]2(C)[C@H]3C[C@@H](O)[C@@H]4[C@@H]([C@]5(C)CC[C@H](C(C)(C)O)O5)CC[C@@]4(C)[C@]3(C)CC[C@H]2C1(C)C` the value was “Non-Toxic”. For the molecule `CC(C)(O)[C@@H]1CC[C@@](C)([C@H]2CC[C@]3(C)[C@@H]2[C@H](O)C[C@@H]2[C@@]4(C)CC[C@H](OC(=O)CN)C(C)(C)[C@@H]4CC[C@]23C)O1`, the Activity entry in the data set with RAW264.7 [1] is “Non-Toxic”. Moreover, the outcome in the data set on RAW264.7 [2] was Active. The like results for `CC(C)(C)OC(=O)NCCCC[C@H](NC(=O)OC(C)(C)C)C(=O)O[C@H]1CC[C@]2(C)[C@H]3C[C@@H](O)[C@@H]4[C@@H]([C@]5(C)CC[C@@H](C(C)(C)O)O5)CC[C@@]4(C)[C@]3(C)CC[C@H]2C1(C)C` were, in that order, “Non-Toxic” and “Active”. In the case of `CC(C)(C)OC(=O)N[C@@H](Cc1ccccc1)C(=O)O[C@H]1CC[C@]2(C)[C@H]3C[C@@H](O)[C@@H]4[C@@H]([C@]5(C)CC[C@@H](C(C)(C)O)O5)CC[C@@]4(C)[C@]3(C)CC[C@H]2C1(C)C`, the Activity result in the data set with RAW264.7 [1] is on record as “Non-Toxic”. In the case of `CC(C)(C)OC(=O)NCC(=O)NCC(=O)O[C@H]1CC[C@]2(C)[C@H]3C[C@@H](O)[C@@H]4[C@@H]([C@]5(C)CC[C@H](C(C)(C)O)O5)CC[C@@]4(C)[C@]3(C)CC[C@H]2C1(C)C`, the inhibition result in the data set on RAW264.7 [3] is “inactive”. Moreover, the inhibition entry (in [4]; in the data set with RAW264.7 [5]; in the data set with RAW264.7 [6]; with RAW264.7 [7]; with RAW264.7 [8]; in data set [9]) was “Dose-dependent effect” in each case. The inhibition result in the data set with RAW264.7 [10] and in the data set on RAW264.7 [11] was “Dose-dependent effect” each time. The Activity entry with RAW264.7 [1] is given as “Non-Toxic”. The outcome in the data set on RAW264.7 [2] was Active.

In the case of `CC(C)(O)[C@H]1CC[C@@](C)([C@H]2CC[C@]3(C)[C@@H]2[C@H](O)C[C@@H]2[C@@]4(C)CC[C@H](OC(=O)CN)C(C)(C)[C@@H]4CC[C@]23C)O1`, in the data set with RAW264.7 [1], the Activity result is “Non-Toxic”. In the data set on RAW264.7 [2], the outcome was Active.

For the molecule `CC(C)(C)OC(=O)NCC(=O)O[C@H]1CC[C@]2(C)[C@H]3C[C@@H](O)[C@@H]4[C@@H]([C@]5(C)CC[C@@H](C(C)(C)O)O5)CC[C@@]4(C)[C@]3(C)CC[C@H]2C1(C)C`, the Activity result with RAW264.7 [1] is recorded as “Non-Toxic”. In addition, in the data set on RAW264.7 [2], the outcome was Active. For `CC(C)(C)OC(=O)NCC(=O)NCC(=O)NCC(=O)O[C@H]1CC[C@]2(C)[C@H]3C[C@@H](O)[C@@H]4[C@@H]([C@]5(C)CC[C@@H](C(C)(C)O)O5)CC[C@@]4(C)[C@]3(C)CC[C@H]2C1(C)C`, the Activity result in the data set with RAW264.7 [1] is reported as “Non-Toxic”.

Take `CC(C)(O)[C@H]1CC[C@@](C)([C@H]2CC[C@]3(C)[C@@H]2[C@H](O)C[C@@H]2[C@@]4(C)CC[C@H](OC(=O)CNC(=O)CN)C(C)(C)[C@@H]4CC[C@]23C)O1`: the Activity entry in the data set with RAW264.7 [1] was “Non-Toxic”. The result in the data set on RAW264.7 [2] was Active.

Consider `CC(C)(O)[C@@H]1CC[C@@](C)([C@H]2CC[C@]3(C)[C@@H]2[C@H](O)C[C@@H]2[C@@]4(C)CC[C@H](OC(=O)[C@@H](N)CCCCN)C(C)(C)[C@@H]4CC[C@]23C)O1`, for which, in the data set with RAW264.7 [1], the Activity result is on record as “Non-Toxic”.
